Data on two molecules can be found in patent US20200255807A1, “IN VITRO PROPAGATION OF PRIMARY CANCER CELLS” (University of Cape Town, priority 2017, published 2020).

This experiment concerns primary breast cancer cells. The experiment in a line: Isolation of primary breast cancer cells from biopsy samples by digestion with collagenase II plus an additional enzyme (cell yield and viability). Format: cell-based, human. To be noted: for Mean fold increase in cell number (collagenase II = 1): additional enzyme used in conjunction with 5 μg/ml collagenase II, 45 min at 37° C., compared to collagenase II alone. The protocol: A fresh primary breast cancer tumour biopsy sample (10-200 mg of tissue) was placed in 5 ml Hanks Balanced Salts (HBSS; Lonza, Germany; pH=7.5) on ice and it was transported immediately to the laboratory. The biopsy sample was weighed and then cut into 1 mm by 1 mm pieces using a scalpel in a BSL2 cabinet. The cut pieces were placed in 1 ml HBSS containing 5 μg/ml collagenase II (Ambion, USA) with or without 5 U/ml hyaluronidase, dispase II or papain (10 mg/ml) and the tissue was digested by incubation at 37° C. with rotation for 45 min. After the incubation time, a […] cell strainer (Becton Dickinson, USA) was placed into a 50 ml tube. The undigested material was pipetted up and down 10 times and then placed onto the cell strainer. The cell strainer was washed with 10 ml of HBSS and the cells were pelleted at 500×g for 5 min. The pelleted cells were then washed with an additional 10 ml of HBSS.
The pelleted cells were re-suspended in DMEM/F12 containing 10% human A/B serum (Western Province Blood Transfusion Services), 100 IU penicillin/streptomycin (Lonza, Germany), 0.1 mM sodium pyruvate (Lonza, Germany), […] (Sigma, Germany), […] (Sigma, Germany), 5 mM ethanolamine (Sigma, Germany), 5 μg/ml selenium (Sigma, Germany) and 10 nM estradiol (Sigma, Germany). The cells were then plated into a multi well plate or dish, which was dependent on the cell number. The breast cancer cells were incubated at 37° C. for 2 days and the medium was replaced with fresh medium without 10 nM estradiol, but with 100 nM cortisol (Sigma, Germany). The medium was replaced every 2 days with fresh medium containing half the concentration of cortisol used on the previous day. When the cells were confluent they were split using a standard procedure (trypsin) into a larger culture vessel.

With Hyaluronidase, the “Mean fold increase in cell number (collagenase II = 1)” value is reported as 2.7 (SD = 1.2-4.5) fold (breast biopsy samples) and 2.7 fold (breast biopsy samples, listed as hyaluronidase). Moreover, the Mean cell viability (additional enzyme used in conjunction with collagenase II for cell isolation, breast biopsy samples (Table 1)) is 69%. Also, the “mean viability of the cells” value (enzyme used in conjunction with collagenase II, breast biopsy samples) is recorded as 69%.

B1: Papain: protease enzyme (10 mg/ml) added with collagenase II to the isolation buffer for digesting tumour biopsy tissue (protein, UniProt P00784 134-345, looked up)
Papain: IPEYVDWRQKGAVTPVKNQGSCGSCWAFSAVVTIEGIIKIRTGNLNEYSEQELLDCDRRSYGCNGGYPWSALQLVAQYGIHYRNTYPYEGVQRYCRSREKGPYAAKTDGVRQVQPYNEGALLYSIANQPVSVVLEAAGKDFQLYRGGIFVGPCGNKVDHAVAAVGYGPNYILIKNSWGTGWGENGYIRIKRGTGNSYGVCGLYTSSFYPVKN
Take B1: the “Mean fold increase in cell number (collagenase II = 1)” value is listed as 0.7 (SD = 0.4-0.9) fold (breast biopsy samples) and 0.7 fold (breast biopsy samples, listed as papain).
